From patent publication US20220249440A1, “MUSCLE RE[…]” (SATO PHARMACEUTICAL CO., LTD., priority 2019, published 2022)

Assays:
[1] = test system: muscle-damaged model animal (CTX administered to tibialis anterior muscle); assay: Muscle regeneration in cardiotoxin (CTX) muscle-damaged model animal; area of regenerated single muscle fibers with central nuclei in tibialis anterior muscle; assay type: in vivo, C57BL/6 male mice; settings: 10 μL intramuscular into tibialis anterior muscle once a day from day before CTX to 6 day after CTX; for increase in the mean muscle fiber area of regenerated muscle as compared with the Vehicle administration group: 7 days after CTX, P<0.0001; for histogram of the regenerated single-muscle fiber area vs Vehicle administration group: muscle collected 7 days after CTX
Experimental: Seven-week old C57BL/6 male mice (CLEA Japan, Inc.) were purchased, and used for experiment at the age of 8 weeks.
A model animal to which muscle damage had been caused by administration of snake venom cardiotoxin (CTX) was used. The muscle-damaged model animal has been widely used in studies on the regeneration from muscle damage.
Under the anesthesia with isoflurane, 50 μL of 10 μM CTX was administered to the tibialis anterior muscle of the right hindlimb of the mouse. After 7 days of the administration of CTX, the tibialis anterior muscle was collected by dissection, and supplied to the preparation of a muscle tissue section.
Immediately after the collection of the tibialis anterior muscle, the tibialis anterior muscle was immersed in isopentane cooled with liquid nitrogen and was rapidly frozen. The frozen muscle tissue was cut into slices each having a thickness of 10 μm by using a cryostat (Leica Biosystems), and the slice was attached onto an antistripping coated slide glass (Matsunami Glass Ind., Ltd).
A muscle tissue section was sufficiently air dried for 30 minutes under room temperature. After that, the muscle tissue section was fixed by immersing it in acetone cooled to −30° C. and treating at −30° C. for 20 minutes. The fixed section was air dried once and washed with PBS. Then the section was blocked by dropwisely adding a blocking reagent (Blocking One, NACALAI TESQUE, INC.) to the section and being subjected to the blocking treatment for 1 hour. Next, a primary antibody (Anti-Laminin-2 (α-2 Chain) antibody, Rat monoclonal (Sigma-Aldrich)) obtained by being diluted 500 times with the blocking reagent was added dropwise, and the reaction was conducted at overnight at 4° C. Since laminin to which a primary antibody binds is a protein expressed in all muscle cells, the primary antibody was used in this experiment in order to measure the area of individual muscle cells in a section. The muscle tissue section after the reaction with the primary antibody was washed with PBS, and then was reacted for 1 hour with a secondary antibody (CF 488A Goat Anti-Rat IgG (H+L) (Biotium)) obtained by being diluted 500 times with the blocking reagent. The secondary antibody that is an anti-rat antibody conjugated with a fluorescent dye binds to the primary antibody, and stains the laminin. The muscle tissue section after the reaction with the secondary antibody was washed with PBS, and sealed by using “[…] Hard⋅Set with DAPI” (Vector), and then the fluorescence observation was performed with an inverted microscope FSX100 (OLYMPUS). The “[…] Hard⋅Set with DAPI” was used for staining the central nucleus of muscle cells.
The muscle regeneration was evaluated on the basis of the image data taken from the fluorescence observation. In this experiment, muscle cells each having a central nucleus (single muscle fibers having central nuclei) were used as an indicator for regenerated muscle. After the image data was taken into image analysis software ImageJ (NIH), a muscle cell having a central nucleus was extracted. The cross-sectional area of the extracted individual cells was measured on the basis of the cell membrane stained with laminin. For the area measurement, “Analyze Particles” that is an add-in analysis program on ImageJ was used. The measurement results were shown as a distribution chart (histogram) of the area and number of regenerated single-muscle fibers, and as an average value of the cross-sectional areas of all the regenerated single muscle fibers (mean muscle fiber area).

5-HT2B receptor = 5-HT2B receptor (Homo sapiens, UniProt P41595); settings: cited literature: Br. J. Pharmacol. 128(1):13-20, 1999; J. Pharmacol. Exp. Ther. 347(3):645-59, 2013; cited from earlier work
Sequence of 5-HT2B receptor (P41595 whole entry): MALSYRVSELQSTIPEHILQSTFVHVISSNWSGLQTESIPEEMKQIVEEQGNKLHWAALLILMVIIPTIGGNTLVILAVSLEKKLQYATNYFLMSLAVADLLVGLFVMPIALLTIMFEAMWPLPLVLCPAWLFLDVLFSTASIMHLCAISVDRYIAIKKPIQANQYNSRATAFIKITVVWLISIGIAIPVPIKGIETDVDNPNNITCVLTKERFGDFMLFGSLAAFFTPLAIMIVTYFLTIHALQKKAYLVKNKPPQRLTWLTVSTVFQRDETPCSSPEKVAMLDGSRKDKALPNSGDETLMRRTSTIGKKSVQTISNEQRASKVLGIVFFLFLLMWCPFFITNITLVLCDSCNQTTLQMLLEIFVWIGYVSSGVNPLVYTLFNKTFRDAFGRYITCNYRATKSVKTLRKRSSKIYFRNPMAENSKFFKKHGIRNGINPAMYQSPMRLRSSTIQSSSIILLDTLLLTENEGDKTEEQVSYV

[2] = 5 mM in PBS with 5% dimethyl sulfoxide

Row | Structure (SMILES) | increase in the mean muscle fiber area of regenerated muscle as compared with the Vehicle administration group [1, 2] | histogram of the regenerated single-muscle fiber area vs Vehicle administration group [1, 2] | 5-HT2B receptor agonist activity (known from literature) (5-HT2B receptor) | increase in the mean muscle fiber area of regenerated muscle as compared with the Vehicle administration group ([1]; 10 mM in PBS) | histogram of the regenerated single-muscle fiber area vs Vehicle administration group ([1]; 10 mM in PBS)
1 | CC(N)Cc1c[nH]c2ccc(OCc3cccs3)cc12 (stereo not drawn) [BW723C86, 1-(5-(thiophen-2-ylmethoxy)-1H-indol-3-yl)propan-2-amine] | 9.5% | shifted to the right side | selective 5-HT2B receptor agonist |  | 
2 | Cn1c2c(c3ccccc31)CCNCC2 [PNU 22394, 6-methyl-1,2,3,4,5,6-hexahydroazepino[4,5-b]indole] |  |  | 5-HT2B receptor agonist | 8.5% | shifted to the right side
3 | CC(N)Cc1c[nH]c2ccc(O)cc12 (stereo not drawn) [α-methyl-5-HT, 3-(2-aminopropyl)-1H-indol-5-ol] | 23% | shifted to the right side | 5-HT2B receptor agonist |  | 
